Test results reported in ChEMBL document CHEMBL4414672, “Synthesis of certain benzothieno[3,2-d]pyrimidine derivatives as a selective SIRT2 inhibitors” (Eur J Med Chem, 2020).
Values after ≈ are worked out from the molar mass of the structure shown.

Columns and labels:
UO-31 [1] = test: Cytotoxicity against human UO31 cells assessed as reduction in cell viability after 24 hrs by MTT assay; type: functional, cell-based; settings: UO-31, 24 h
MCF7 [2] = test: Cytotoxicity against human MCF7 cells assessed as reduction in cell viability after 24 hrs by MTT assay; type: functional, cell-based; settings: MCF7, 24 h
HOP-92 = test: Growth inhibition of human HOP92 cells at 10^-5 M incubated for 48 hrs by sulforhodamine B assay; type: functional; settings: HOP-92, 48 h, read-out: GI
DU-145 = test: Growth inhibition of human DU145 cells at 10^-5 M incubated for 48 hrs by sulforhodamine B assay; type: functional; settings: DU-145, 48 h, read-out: GI
HOP-62 = test: Growth inhibition of human HOP62 cells at 10^-5 M incubated for 48 hrs by sulforhodamine B assay; type: functional; settings: HOP-62, 48 h, read-out: GI
MDA-MB-231 = test: Growth inhibition of human MDA-MB-231 cells at 10^-5 M incubated for 48 hrs by sulforhodamine B assay; type: functional; settings: MDA-MB-231, 48 h, read-out: GI
A498 = test: Growth inhibition of human A498 cells at 10^-5 M incubated for 48 hrs by sulforhodamine B assay; type: functional; settings: A498, 48 h, read-out: GI
SN12C = test: Growth inhibition of human SN12C cells at 10^-5 M incubated for 48 hrs by sulforhodamine B assay; type: functional; settings: read-out: GI
K562 = test: Growth inhibition of human K562 cells at 10^-5 M incubated for 48 hrs by sulforhodamine B assay; type: functional; settings: K562, 48 h, read-out: GI
NCI/ADR-RES = test: Growth inhibition of human NCI/ADR-RES cells at 10^-5 M incubated for 48 hrs by sulforhodamine B assay; type: functional; settings: read-out: GI
IGROV-1 = test: Growth inhibition of human IGROV1 cells at 10^-5 M incubated for 48 hrs by sulforhodamine B assay; type: functional; settings: IGROV-1, 48 h, read-out: GI
A549 = test: Growth inhibition of human A549/ATCC cells at 10^-5 M incubated for 48 hrs by sulforhodamine B assay; type: functional; settings: A549, 48 h, read-out: GI
HT-29 = test: Growth inhibition of human HT-29 cells at 10^-5 M incubated for 48 hrs by sulforhodamine B assay; type: functional; settings: HT-29, 48 h, read-out: GI
Hs-578T = test: Growth inhibition of human Hs 578T cells at 10^-5 M incubated for 48 hrs by sulforhodamine B assay; type: functional; settings: read-out: GI
OVCAR-4 = test: Growth inhibition of human OVCAR4 cells at 10^-5 M incubated for 48 hrs by sulforhodamine B assay; type: functional; settings: OVCAR-4, 48 h, read-out: GI
ACHN = test: Growth inhibition of human ACHN cells at 10^-5 M incubated for 48 hrs by sulforhodamine B assay; type: functional; settings: read-out: GI
HCC 2998 = test: Growth inhibition of human HCC2998 cells at 10^-5 M incubated for 48 hrs by sulforhodamine B assay; type: functional; settings: HCC 2998, 48 h, read-out: GI
OVCAR-8 = test: Growth inhibition of human OVCAR8 cells at 10^-5 M incubated for 48 hrs by sulforhodamine B assay; type: functional; settings: OVCAR-8, 48 h, read-out: GI
MOLT-4 = test: Growth inhibition of human MOLT4 cells at 10^-5 M incubated for 48 hrs by sulforhodamine B assay; type: functional; settings: MOLT-4, 48 h, read-out: GI
NCI-H460 = test: Growth inhibition of human NCI-H460 cells at 10^-5 M incubated for 48 hrs by sulforhodamine B assay; type: functional; settings: NCI-H460, 48 h, read-out: GI
SW-620 = test: Growth inhibition of human SW620 cells at 10^-5 M incubated for 48 hrs by sulforhodamine B assay; type: functional; settings: SW-620, 48 h, read-out: GI
NCI-H322M = test: Growth inhibition of human NCI-H322M cells at 10^-5 M incubated for 48 hrs by sulforhodamine B assay; type: functional; settings: read-out: GI
T47D = test: Growth inhibition of human T47D cells at 10^-5 M incubated for 48 hrs by sulforhodamine B assay; type: functional; settings: read-out: GI
NCI-H522 = test: Growth inhibition of human NCI-H522 cells at 10^-5 M incubated for 48 hrs by sulforhodamine B assay; type: functional; settings: NCI-H522, 48 h, read-out: GI
CAKI-1 = test: Growth inhibition of human Caki1 cells at 10^-5 M incubated for 48 hrs by sulforhodamine B assay; type: functional; settings: CAKI-1, 48 h, read-out: GI
HCT-116 = test: Growth inhibition of human HCT116 cells at 10^-5 M incubated for 48 hrs by sulforhodamine B assay; type: functional; settings: HCT-116, 48 h, read-out: GI
MCF7 [3] = test: Growth inhibition of human MCF7 cells at 10^-5 M incubated for 48 hrs by sulforhodamine B assay; type: functional; settings: MCF7, 48 h, read-out: GI
NCI-H226 = test: Growth inhibition of human NCI-H226 cells at 10^-5 M incubated for 48 hrs by sulforhodamine B assay; type: functional; settings: NCI-H226, 48 h, read-out: GI
KM12 = test: Growth inhibition of human KM12 cells at 10^-5 M incubated for 48 hrs by sulforhodamine B assay; type: functional; settings: KM12, 48 h, read-out: GI
OVCAR-3 = test: Growth inhibition of human OVCAR3 cells at 10^-5 M incubated for 48 hrs by sulforhodamine B assay; type: functional; settings: OVCAR-3, 48 h, read-out: GI
OVCAR-5 = test: Growth inhibition of human OVCAR5 cells at 10^-5 M incubated for 48 hrs by sulforhodamine B assay; type: functional; settings: OVCAR-5, 48 h, read-out: GI
HL-60(TB) = test: Growth inhibition of human HL-60(TB) cells at 10^-5 M incubated for 48 hrs by sulforhodamine B assay; type: functional; settings: HL-60, 48 h, read-out: GI
SR = test: Growth inhibition of human SR cells at 10^-5 M incubated for 48 hrs by sulforhodamine B assay; type: functional; settings: read-out: GI
BT-549 = test: Growth inhibition of human BT549 cells at 10^-5 M incubated for 48 hrs by sulforhodamine B assay; type: functional; settings: BT-549, 48 h, read-out: GI
UO-31 [4] = test: Growth inhibition of human UO31 cells at 10^-5 M incubated for 48 hrs by sulforhodamine B assay; type: functional; settings: UO-31, 48 h, read-out: GI
PC-3 = test: Growth inhibition of human PC3 cells at 10^-5 M incubated for 48 hrs by sulforhodamine B assay; type: functional; settings: PC-3, 48 h, read-out: GI
HCT-15 = test: Growth inhibition of human HCT15 cells at 10^-5 M incubated for 48 hrs by sulforhodamine B assay; type: functional; settings: HCT-15, 48 h, read-out: GI
EKVX = test: Growth inhibition of human EKVX cells at 10^-5 M incubated for 48 hrs by sulforhodamine B assay; type: functional; settings: read-out: GI
CCRF-CEM = test: Growth inhibition of human CCRF-CEM cells at 10^-5 M incubated for 48 hrs by sulforhodamine B assay; type: functional; settings: read-out: GI
MDA-MB-468 = test: Growth inhibition of human MDA-MB-468 cells at 10^-5 M incubated for 48 hrs by sulforhodamine B assay; type: functional; settings: MDA-MB-468, 48 h, read-out: GI
NCI-H23 = test: Growth inhibition of human NCI-H23 cells at 10^-5 M incubated for 48 hrs by sulforhodamine B assay; type: functional; settings: NCI-H23, 48 h, read-out: GI
RXF 393 = test: Growth inhibition of human RXF393 cells at 10^-5 M incubated for 48 hrs by sulforhodamine B assay; type: functional; settings: RXF 393, 48 h, read-out: GI
SK-OV-3 = test: Growth inhibition of human SKOV3 cells at 10^-5 M incubated for 48 hrs by sulforhodamine B assay; type: functional; settings: SK-OV-3, 48 h, read-out: GI
COLO 205 = test: Growth inhibition of human COLO205 cells at 10^-5 M incubated for 48 hrs by sulforhodamine B assay; type: functional; settings: COLO 205, 48 h, read-out: GI
TK-10 = test: Growth inhibition of human TK10 cells at 10^-5 M incubated for 48 hrs by sulforhodamine B assay; type: functional; settings: TK-10, 48 h, read-out: GI
786-0 = test: Growth inhibition of human 786-0 cells at 10^-5 M incubated for 48 hrs by sulforhodamine B assay; type: functional; settings: 786-0, 48 h, read-out: GI

Work on `O=c1[nH]c(=S)[nH]c(-c2ccccc2)c1Cc1c(O)ccc2ccccc12` [CAMBINOL] yielded an IC50 (UO-31 [1]) of 98.6 µg/mL (≈ 274 µM) and an IC50 (MCF7 [2]) of 33.9 µg/mL (≈ 94.2 µM).

Compound `O=C1CSC2=Nc3c(sc4ccc(Cl)cc34)C(c3cccc([N+](=O)[O-])c3)N12` (stereo unspecified) has an inhibition of growth at 10 µM (HOP-92) of -8.65%, an inhibition of growth at 10 µM (DU-145) of -14.2% and an inhibition of growth at 10 µM (HOP-62) of 11%. For the same compound, the inhibition of growth at 10 µM (MDA-MB-231) was 10.8%, the inhibition of growth at 10 µM (A498) was -13.1% and the inhibition of growth at 10 µM (SN12C) was 2.31%. The inhibition of growth at 10 µM (K562) was 6.39%, the inhibition of growth at 10 µM (NCI/ADR-RES) was 12.2% and the inhibition of growth at 10 µM (IGROV-1) was 17.3%. For the same compound, the inhibition of growth at 10 µM (A549) was -1.88%, the inhibition of growth at 10 µM (HT-29) was -8.35% and the inhibition of growth at 10 µM (Hs-578T) was -2.09%. The inhibition of growth at 10 µM (OVCAR-4) was 2.1%, the inhibition of growth at 10 µM (ACHN) was 3.93% and the inhibition of growth at 10 µM (HCC 2998) was -24.4%. It also gave an inhibition of growth at 10 µM (OVCAR-8) of 0.58%, an inhibition of growth at 10 µM (MOLT-4) of 8.28% and an inhibition of growth at 10 µM (NCI-H460) of -3.7%. For the same compound, the inhibition of growth at 10 µM (SW-620) was -3.15%, the inhibition of growth at 10 µM (NCI-H322M) was 5.33% and the inhibition of growth at 10 µM (T47D) was 8.22%. It also gave an inhibition of growth at 10 µM (NCI-H522) of 9.11%, an inhibition of growth at 10 µM (CAKI-1) of 20% and an inhibition of growth at 10 µM (HCT-116) of -0.32%. The inhibition of growth at 10 µM (MCF7 [3]) was 17.9%, the inhibition of growth at 10 µM (NCI-H226) was 13.7% and the inhibition of growth at 10 µM (KM12) was -3.54%. It also gave an inhibition of growth at 10 µM (OVCAR-3) of 0.32%, an inhibition of growth at 10 µM (OVCAR-5) of -6.83% and an inhibition of growth at 10 µM (HL-60(TB)) of 5.48%. It also gave an inhibition of growth at 10 µM (SR) of 17.6%, an inhibition of growth at 10 µM (BT-549) of -21.8% and an inhibition of growth at 10 µM (UO-31 [4]) of 38.3%. It also gave an inhibition of growth at 10 µM (PC-3) of 1.11%, an inhibition of growth at 10 µM (HCT-15) of -1.95% and an inhibition of growth at 10 µM (EKVX) of 21.2%. It also gave an inhibition of growth at 10 µM (CCRF-CEM) of -12%, an inhibition of growth at 10 µM (MDA-MB-468) of 4.8% and an inhibition of growth at 10 µM (NCI-H23) of 10.5%. It also gave an inhibition of growth at 10 µM (RXF 393) of -10.1%, an inhibition of growth at 10 µM (SK-OV-3) of 7.65% and an inhibition of growth at 10 µM (COLO 205) of -4.05%. For the same compound, the inhibition of growth at 10 µM (TK-10) was -14.8% and the inhibition of growth at 10 µM (786-0) was -7.37%.
